Data set [1] in a line: Plasma protein binding assay (Rapid Equilibrium Dialysis), human. It is filed as in vitro ADME. The conditions noted are these: 1 μM, dialysis 4 h at 37° C., pH 7.4. Here is the method: Plasma Protein Binding Assay
Compounds were added to human plasma adjusted at pH 7.4 with lactic acid or ammonium hydroxide (final concentration 1 μM) and dialyzed with RED (Rapid Equilibrium Dialysis) devices against Phosphate Buffered Saline (0.1M sodium Phosphate and 0.15 M sodium chloride) 0.1 M pH 7.4 for 4 h at 37° C. in an incubator containing 5% CO2. Following dialysis, an aliquot of plasma and buffer were diluted with an equal volume of the opposite matrix to nullify the matrix effect and a calibration was prepared in the mixed matrix. Aliquots of samples and calibrations (30 μl) were transferred in a 96 well plate containing 90 μl MeOH to precipitate the proteins. After vortexing for 20 min at 1400 rpm on an Eppendorf thermomixer, the plates were centrifuged at 3220 g for 20 min at 4° C. and the supernatants were analyzed with LC-MS/MS. Concentrations of analyte were used for the calculation of the fraction bound to plasma. Propranolol [(±)-1-isopropylamino-3-(1-naphthyloxy)-2-propanol], a reference compound, was run in parallel.

Another data set deals with T1, human FPR1 receptor (Homo sapiens, UniProt P21462).
T1 construct: expressed in transfected cells; host or cells: HEK293 (HEK293-hFPR1-Gα16)
T1 sequence (P21462 1-350): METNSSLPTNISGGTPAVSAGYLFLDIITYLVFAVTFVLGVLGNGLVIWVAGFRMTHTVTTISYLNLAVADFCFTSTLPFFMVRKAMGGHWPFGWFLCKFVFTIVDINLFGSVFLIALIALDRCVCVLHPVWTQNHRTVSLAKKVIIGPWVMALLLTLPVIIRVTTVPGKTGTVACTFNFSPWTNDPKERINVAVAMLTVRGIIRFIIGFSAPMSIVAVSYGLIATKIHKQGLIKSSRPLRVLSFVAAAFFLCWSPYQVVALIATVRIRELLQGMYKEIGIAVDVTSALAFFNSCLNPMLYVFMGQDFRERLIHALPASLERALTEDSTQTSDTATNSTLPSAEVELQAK
Briefly: FLIPR assay (FPR1 receptor), intracellular calcium measurements in HEK293-hFPR1-Gα16 cells. The format is cell-based. The conditions noted are these: median of n replications, normalized to WKYMVm 10 nM, read-out: EC50 (agonistic activity with respect to the FPR1 receptor). Here is the method: FLIPR Assay (FPR1 Receptor)
(§1) Intracellular Calcium Measurements:
(§2) Cells expressing recombinant human FPR1 receptor and the G-protein Gα16 (HEK293-hFPR1-Gα16) were grown to 80% confluency in Growing Medium (GM). Cells were detached from culture dishes with a cell dissociation buffer (Invitrogen, 13151-014), and collected by centrifugation at 1,000 rpm at rt for 5 min in Assay Buffer (AB) (equal parts of Hank's BSS (Gibco, 14065-049) and DMEM without Phenol Red (Gibco, 11880-028)). After 60 min incubation at 37° C. under 5% CO2 in AB supplemented with 1 μM Fluo-4 (AM) (Invitrogen, F14202) and 20 mM HEPES (Gibco, 15630-056), the cells were washed and resuspended in AB. They were then seeded onto 384-well FLIPR assay plates (Greiner, 781091) at 50,000 cells in 70 μl per well and sedimented by centrifugation at 1,000 rpm for 1 min. Stock solutions of test compounds were made up at a concentration of 10 mM in DMSO, and serially diluted in AB to concentrations required for activation dose response curves. WKYMVm (Phoenix Peptides) was used as a reference agonist. […] Changes in fluorescence were monitored before and after the addition of test compounds at lex=488 nm and lem=540 nm. […]

A short description of data set [2]: Plasma stability assay (stability in serum), human. The format is in vitro ADME. The conditions noted are these: pH 7.4, 37° C., 1 μM compound; for remaining concentration at Tlast: Tlast 6 h. Here is the method: (§3) Rat or human serum adjusted at pH 7.4 with lactic acid or ammonium hydroxide, were equilibrated at 37° C. under orbital shaking in an incubator containing 5% CO2. The reaction was initiated by the addition of 1 μM of compounds (1 μl of 1 mM stock solution in DMSO in 999 μl of plasma). At 0.01 h, 0.25 h, 0.5 h, 1 h, 2 h, 4 h and 6 h aliquots (30 μl) were transferred in a 96 well plate containing 90 μl MeOH placed on ice to stop the reaction. After vortexing for 20 min at 1400 rpm on an Eppendorf thermomixer, the plates were centrifuged at 3220 g for 20 min at 4° C. and the supernatants were analyzed with LC-MS/MS. Calibration samples in serum containing 0.1% of dichlorvos (2,2-dichlorovinyl-dimethyl-phosphate) were prepared and analysed in parallel to the incubation samples to allow the quantification. Half lives (T1/2) in hours were then calculated. In addition the remaining concentration of the respective compound after time Tlast relative to the concentration at the beginning has been determined (table 3).

Data set [3] in a line: Plasma protein binding assay (Rapid Equilibrium Dialysis), rat. The conditions noted are these: 1 μM, dialysis 4 h at 37° C., pH 7.4. The format is in vitro ADME. Background: In equilibrium dialysis only unbound substance equilibrates across the membrane.
Data set [4] can be described thus: Plasma stability assay (stability in serum), rat. The format is in vitro ADME. The conditions noted are these: pH 7.4, 37° C., 1 μM compound; for remaining concentration at Tlast: Tlast 6 h. Here is the method: as §3
A further data set has as its target T2, human ALX receptor (Homo sapiens, UniProt P25090).
T2 construct: expressed in transfected cells; host or cells: HEK293 (HEK293-hALXR-Gα16)
T2 sequence (P25090 1-351): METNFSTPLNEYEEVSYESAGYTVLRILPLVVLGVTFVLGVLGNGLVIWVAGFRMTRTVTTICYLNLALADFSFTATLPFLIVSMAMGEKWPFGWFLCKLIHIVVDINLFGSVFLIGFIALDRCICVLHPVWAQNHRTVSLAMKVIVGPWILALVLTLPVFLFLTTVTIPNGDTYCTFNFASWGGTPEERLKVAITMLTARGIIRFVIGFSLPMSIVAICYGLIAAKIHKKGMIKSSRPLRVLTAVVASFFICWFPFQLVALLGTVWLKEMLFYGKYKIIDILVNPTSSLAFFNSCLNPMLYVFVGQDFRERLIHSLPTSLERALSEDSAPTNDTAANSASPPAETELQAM
Briefly: FLIPR assay (ALX receptor), intracellular calcium measurements in HEK293-hALXR-Gα16 cells. The conditions noted are these: median of n replications, normalized to WKYMVm 10 nM, read-out: EC50 (agonistic activity with respect to the ALX receptor). It is filed as cell-based. Here is the method: FLIPR Assay (ALX Receptor)
as §1
as §2, with “ALX” for “FPR1”, “(HEK293-hALXR-Gα16)” for “(HEK293-hFPR1-Gα16)”
(A change in cytosolic calcium serves as a functional read-out for many receptors and channels.)

Take “(1S,2R,3R,4R)—N^2—((4-(1,1-Difluoroethyl)oxazol-2-yl)methyl)-N^3-(trans-3-fluoropiperidin-4-yl)spiro[bicyclo[2.2.1]heptane-7,1′-cyclopropane]-2,3-dicarboxamide [Example 1]”: the Plasma protein binding in data set [1] is reported as 54.8%; in data set [3], 50.7%. The EC50 (usually the concentration needed to bring the measured effect to its halfway point) was above 6000 nM at human FPR1 receptor and 6.6 nM at human ALX receptor. Besides, the “remaining concentration at Tlast” value is listed as 97% in data set [2] and above 100% in data set [4]. The T1/2 in data set [2] and in data set [4] was above 6 h each time.
“(1S,2R,3R,4R)—N^2—((4-(1,1-Difluoroethyl)oxazol-2-yl)methyl)-N^3-(trans-3-fluoropiperidin-4-yl)spiro[bicyclo[2.2.1]heptane-7,1′-cyclopropane]-2,3-dicarboxamide [Example 2]”: the Plasma protein binding in data set [1] is reported as 63.8%; in data set [3], 47.7%. The EC50 is above 7000 nM on human FPR1 receptor and 3.6 nM on human ALX receptor. The “remaining concentration at Tlast” value in data set [2] and in data set [4] was above 100% in each case. For the same substance, the T1/2 in data set [2] and in data set [4] was above 6 h in each case.
